Results: ChEMBL document CHEMBL3885881, “DrugMatrix”

Species on record: Rattus norvegicus
Experiment: DrugMatrix - Regimen: Daily Repeat
Type: toxicity, organism-based, Sprague-Dawley
Parameters: regimen Daily Repeat, gender Male, age 6-8 weeks
Details: in vivo, po, route oral GAVAGE, vehicle 100 % WATER; for BASOPHIL / EOSINOPHIL / ERYTHROCYTE COUNT / HEMATOCRIT / HEMOGLOBIN / LEUKOCYTE COUNT / LYMPHOCYTE / MEAN CORPUSCULAR HEMOGLOBIN / MEAN CORPUSCULAR HEMOGLOBIN CONCENTRATION / MEAN CORPUSCULAR VOLUME / MONOCYTE / NEUTROPHIL / PLATELET COUNT: tissue Blood; for ALANINE AMINOTRANSFERASE / ALBUMIN / ALKALINE PHOSPHATASE / ASPARTATE AMINOTRANSFERASE / BLOOD UREA NITROGEN / CHLORIDE / CHOLESTEROL / CREATINE PHOSPHOKINASE / CREATININE / GLUCOSE / PHOSPHORUS / POTASSIUM / SODIUM / TOTAL BILIRUBIN / TOTAL PROTEIN: tissue Plasma
[1] = 0 mg/kg, 72 h, dose level Control, time 3 day
[2] = 0 mg/kg, 120 h, dose level Control, time 5 day
[3] = 53.5 mg/kg, 72 h, dose level Low, time 3 day
[4] = 53.5 mg/kg, 120 h, dose level Low, time 5 day
[5] = 535 mg/kg, 72 h, dose level High, time 3 day
[6] = 535 mg/kg, 120 h, dose level High, time 5 day

Question: What does the source list for `CN1C(=O)OC(C)(C)C1=O` [TRIMETHADIONE]?
Answer: BASOPHIL [1]: 0%; EOSINOPHIL [1]: 0.5%; ERYTHROCYTE COUNT [1]: 5.8 x10E6/uL; HEMATOCRIT [1]: 35.07%; HEMOGLOBIN [1]: 14.12 G/DL; LEUKOCYTE COUNT [1]: 13.7 x10E3/uL; LYMPHOCYTE [1]: 82.33%; MEAN CORPUSCULAR HEMOGLOBIN [1]: 24.38 pg; MEAN CORPUSCULAR HEMOGLOBIN CONCENTRATION [1]: 40.28 G/DL; MEAN CORPUSCULAR VOLUME [1]: 60.52 fL; MONOCYTE [1]: 2.67%; NEUTROPHIL [1]: 14.5%; PLATELET COUNT [1]: 911.5 x10E3/uL; ALANINE AMINOTRANSFERASE [1]: 36.83 u/L; ALBUMIN [1]: 3.75 G/DL; ALKALINE PHOSPHATASE [1]: 399.83 u/L; ASPARTATE AMINOTRANSFERASE [1]: 66 u/L; BLOOD UREA NITROGEN [1]: 14.67 mg/dL; CHLORIDE [1]: 101.67 MEQ/L; CHOLESTEROL [1]: 66.33 mg/dL; CREATINE PHOSPHOKINASE [1]: 139.5 u/L; CREATININE [1]: 0.92 mg/dL; GLUCOSE [1]: 175 mg/dL; PHOSPHORUS [1]: 11.42 mg/dL; POTASSIUM [1]: 7.03 MEQ/L; SODIUM [1]: 148.5 MEQ/L; TOTAL BILIRUBIN [1]: 1.13 mg/dL; TOTAL PROTEIN [1]: 6.87 G/DL; BASOPHIL [2]: 0%; EOSINOPHIL [2]: 0.2%; ERYTHROCYTE COUNT [2]: 6.02 x10E6/uL; HEMATOCRIT [2]: 36.48%; HEMOGLOBIN [2]: 14.38 G/DL; LEUKOCYTE COUNT [2]: 12.34 x10E3/uL; LYMPHOCYTE [2]: 83%; MEAN CORPUSCULAR HEMOGLOBIN [2]: 23.92 pg; MEAN CORPUSCULAR HEMOGLOBIN CONCENTRATION [2]: 39.44 G/DL; MEAN CORPUSCULAR VOLUME [2]: 60.66 fL; MONOCYTE [2]: 3%; NEUTROPHIL [2]: 13.8%; PLATELET COUNT [2]: 1190.6 x10E3/uL; ALANINE AMINOTRANSFERASE [2]: 43 u/L; ALBUMIN [2]: 3.73 G/DL; ALKALINE PHOSPHATASE [2]: 393 u/L; ASPARTATE AMINOTRANSFERASE [2]: 62.33 u/L; BLOOD UREA NITROGEN [2]: 16.33 mg/dL; CHLORIDE [2]: 101.67 MEQ/L; CHOLESTEROL [2]: 65.5 mg/dL; CREATINE PHOSPHOKINASE [2]: 130.67 u/L; CREATININE [2]: 0.58 mg/dL; GLUCOSE [2]: 180.67 mg/dL; PHOSPHORUS [2]: 11.28 mg/dL; POTASSIUM [2]: 7.05 MEQ/L; SODIUM [2]: 148.17 MEQ/L; TOTAL BILIRUBIN [2]: 0.72 mg/dL; TOTAL PROTEIN [2]: 6.83 G/DL; BASOPHIL [3]: 0%; EOSINOPHIL [3]: 0.5%; ERYTHROCYTE COUNT [3]: 6.33 x10E6/uL; HEMATOCRIT [3]: 38.05%; HEMOGLOBIN [3]: 15.05 G/DL; LEUKOCYTE COUNT [3]: 12.85 x10E3/uL; LYMPHOCYTE [3]: 83.5%; MEAN CORPUSCULAR HEMOGLOBIN [3]: 23.8 pg; MEAN CORPUSCULAR HEMOGLOBIN CONCENTRATION [3]: 39.55 G/DL; MEAN CORPUSCULAR VOLUME [3]: 60.15 fL; MONOCYTE [3]: 3.5%; NEUTROPHIL [3]: 12.5%; PLATELET COUNT [3]: 1304.5 x10E3/uL; ALANINE AMINOTRANSFERASE [3]: 36.5 u/L; ALBUMIN [3]: 3.7 G/DL; ALKALINE PHOSPHATASE [3]: 313 u/L; ASPARTATE AMINOTRANSFERASE [3]: 61.5 u/L; BLOOD UREA NITROGEN [3]: 12 mg/dL; CHLORIDE [3]: 101 MEQ/L; CHOLESTEROL [3]: 59 mg/dL; CREATINE PHOSPHOKINASE [3]: 136 u/L; CREATININE [3]: 0.55 mg/dL; GLUCOSE [3]: 210.5 mg/dL; PHOSPHORUS [3]: 13 mg/dL; POTASSIUM [3]: 6.85 MEQ/L; SODIUM [3]: 151 MEQ/L; TOTAL BILIRUBIN [3]: 0.35 mg/dL; TOTAL PROTEIN [3]: 6.65 G/DL; BASOPHIL [4]: 0%; EOSINOPHIL [4]: 0%; ERYTHROCYTE COUNT [4]: 6.06 x10E6/uL; HEMATOCRIT [4]: 36.17%; HEMOGLOBIN [4]: 14.4 G/DL; LEUKOCYTE COUNT [4]: 18.23 x10E3/uL; LYMPHOCYTE [4]: 83.33%; MEAN CORPUSCULAR HEMOGLOBIN [4]: 23.8 pg; MEAN CORPUSCULAR HEMOGLOBIN CONCENTRATION [4]: 39.83 G/DL; MEAN CORPUSCULAR VOLUME [4]: 59.7 fL; MONOCYTE [4]: 2.33%; NEUTROPHIL [4]: 14.33%; PLATELET COUNT [4]: 1288 x10E3/uL; ALANINE AMINOTRANSFERASE [4]: 36.67 u/L; ALBUMIN [4]: 3.57 G/DL; ALKALINE PHOSPHATASE [4]: 314 u/L; ASPARTATE AMINOTRANSFERASE [4]: 59 u/L; BLOOD UREA NITROGEN [4]: 12 mg/dL; CHLORIDE [4]: 102.33 MEQ/L; CHOLESTEROL [4]: 70.67 mg/dL; CREATINE PHOSPHOKINASE [4]: 109.33 u/L; CREATININE [4]: 0.6 mg/dL; GLUCOSE [4]: 190.67 mg/dL; PHOSPHORUS [4]: 13.13 mg/dL; POTASSIUM [4]: 6.6 MEQ/L; SODIUM [4]: 151.33 MEQ/L; TOTAL BILIRUBIN [4]: 0.3 mg/dL; TOTAL PROTEIN [4]: 6.5 G/DL; BASOPHIL [5]: 0%; EOSINOPHIL [5]: 0%; ERYTHROCYTE COUNT [5]: 6.23 x10E6/uL; HEMATOCRIT [5]: 37.4%; HEMOGLOBIN [5]: 14.63 G/DL; LEUKOCYTE COUNT [5]: 13.2 x10E3/uL; LYMPHOCYTE [5]: 82.67%; MEAN CORPUSCULAR HEMOGLOBIN [5]: 23.5 pg; MEAN CORPUSCULAR HEMOGLOBIN CONCENTRATION [5]: 39.13 G/DL; MEAN CORPUSCULAR VOLUME [5]: 60 fL; MONOCYTE [5]: 5.67%; NEUTROPHIL [5]: 11.67%; PLATELET COUNT [5]: 1178.33 x10E3/uL; ALANINE AMINOTRANSFERASE [5]: 42.67 u/L; ALBUMIN [5]: 3.63 G/DL; ALKALINE PHOSPHATASE [5]: 285 u/L; ASPARTATE AMINOTRANSFERASE [5]: 71 u/L; BLOOD UREA NITROGEN [5]: 12.67 mg/dL; CHLORIDE [5]: 98.33 MEQ/L; CHOLESTEROL [5]: 72 mg/dL; CREATINE PHOSPHOKINASE [5]: 136.33 u/L; CREATININE [5]: 0.57 mg/dL; GLUCOSE [5]: 181.33 mg/dL; PHOSPHORUS [5]: 12.93 mg/dL; POTASSIUM [5]: 6.83 MEQ/L; SODIUM [5]: 152 MEQ/L; TOTAL BILIRUBIN [5]: 0.27 mg/dL; BASOPHIL [6]: 0%; EOSINOPHIL [6]: 0.33%; ERYTHROCYTE COUNT [6]: 5.77 x10E6/uL; HEMATOCRIT [6]: 33.97%; HEMOGLOBIN [6]: 13.13 G/DL; LEUKOCYTE COUNT [6]: 10.67 x10E3/uL; LYMPHOCYTE [6]: 78.67%; MEAN CORPUSCULAR HEMOGLOBIN [6]: 22.8 pg; MEAN CORPUSCULAR HEMOGLOBIN CONCENTRATION [6]: 38.67 G/DL; MEAN CORPUSCULAR VOLUME [6]: 58.97 fL; MONOCYTE [6]: 2.67%; NEUTROPHIL [6]: 18.33%; PLATELET COUNT [6]: 1123.33 x10E3/uL; ALANINE AMINOTRANSFERASE [6]: 42 u/L; ALBUMIN [6]: 3.67 G/DL; ALKALINE PHOSPHATASE [6]: 272.33 u/L; ASPARTATE AMINOTRANSFERASE [6]: 78.33 u/L; BLOOD UREA NITROGEN [6]: 14.67 mg/dL; CHLORIDE [6]: 99.33 MEQ/L; CHOLESTEROL [6]: 74.33 mg/dL; CREATINE PHOSPHOKINASE [6]: 143.67 u/L; CREATININE [6]: 0.57 mg/dL; GLUCOSE [6]: 180.33 mg/dL; PHOSPHORUS [6]: 13.1 mg/dL; POTASSIUM [6]: 6.6 MEQ/L; SODIUM [6]: 153.33 MEQ/L; TOTAL BILIRUBIN [6]: 0.27 mg/dL; TOTAL PROTEIN [6]: 6.53 G/DL
